Data on 33 compounds can be found in PubChem BioAssay (NCI).

“And” between values parts separate entries of the source, which are not always exact repeats. Equal entries are not always repeated.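 Exposure lasted 48 hours, with cells grown in 96-well plates and compounds tested at five concentrations. Abbreviation: GI50, concentration required for 50% inhibition of growth. TGI denotes the concentration required for complete inhibition of growth.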 A value given as a limit tells only on which side of the number the result lay.

Experiment in all cases: NCI tumour cell line growth inhibition, 48 h
Experiment [1] has as its system MOLT-4 leukemia.
Experiment [2] relates to NCI-H460 lung.
Experiment [3] deals with OVCAR-3 ovarian.
The test system of experiment [4] is OVCAR-4 ovarian.
Experiment [5] deals with RPMI-8226 leukemia.
In experiment [6] the test system is SF-295 CNS.
For experiment [7], the system named is SK-OV-3 ovarian.
Experiment [8] deals with T-47D breast.
Experiment [9] has as its system NCI/ADR-RES ovarian.
Experiment [10] deals with HS 578T breast.

`COc1ccc(C(=C(C#N)C#N)c2ccc(OC)cc2)cc1`: the TGI in experiment [1], in [2], in experiment [3], in experiment [4], in [5] and in experiment [6] was above 100 µM throughout.
As for `Nc1nc2ccccc2c2[nH]c3ccccc3c12`, the GI50 in [3] was 1.42 µM; in experiment [4], 1.5 µM; in [7], 4.91 µM; in experiment [8], 1.21 µM. Moreover, the TGI in experiment [3] turned out to be 4.37 µM; in experiment [4], 3.52 µM; in [7], 18.9 µM; in [8], 2.91 µM.
Consider `CN1CCN2c3ccccc3CC(C#N)(C#N)C2C1` (configuration not stated), for which the TGI in [1], in experiment [2], in experiment [3], in [4], in [5] and in [6] was above 100 µM each time. The same compound displayed a TGI in experiment [7] above 100 µM.
As to `CC(=O)O[C@H]1CC[C@@]2(C)C(=CC[C@@H]3C2CC[C@]2(C)C(=O)NC(=O)CC32)C1` (some centres not stated), the TGI in experiment [1], in experiment [2], in [4], in experiment [6] and in experiment [7] was above 100 µM in each case.
`O=C(/C=C/c1ccc[nH]1)c1ccccc1`: the TGI in experiment [1], in experiment [2], in [3], in experiment [4], in experiment [5] and in [6] was above 100 µM in each case. The TGI in [7] was above 100 µM.
Take `CC1=CC[C@@H]2[C@@H](CC[C@@]2(C)O)C(C)(C)[C@H]1CC[C@@H]1[C@@]2(C)CC[C@@H](O)C(C)(C)O[C@@H]2CC[C@]1(C)O`: the TGI in [1] is 47.5 µM; in [2], 34.8 µM; in [3], above 100 µM; in experiment [4] it was above 100 µM; in [5], 52.3 µM; in experiment [6], above 100 µM. Moreover, the TGI in [7] and in experiment [8] was above 100 µM throughout.
Regarding `CN1C(=O)C(C)(C)NS1(=O)=O`, the TGI in [1], in experiment [2], in experiment [3], in experiment [4], in [5] and in experiment [6] was above 100 µM throughout. The same compound registered a TGI in [7] above 100 µM.
As to `CCOc1cccc2sc(N)nc12`, the TGI in experiment [1], in experiment [2], in experiment [3], in experiment [4], in experiment [5] and in experiment [6] was above 100 µM in each case. The TGI in [7] was above 100 µM.
Regarding `C=C(c1ccccc1)[C@@]1(O)CCCC[C@H]1NC(c1ccccc1)c1ccccc1`, the TGI in experiment [1] was 8.24 µM; in experiment [2], 28 µM; in experiment [3] it was 24.7 µM; in [4], 34.5 µM; in experiment [5], 25.5 µM; in experiment [6], 25.1 µM. The compound further came in with a TGI in experiment [7] of 44.2 µM.
Take `COc1cccc(-c2cc(C(=O)Nc3ccc(Cl)cc3)nc(N)n2)c1`: the TGI in experiment [1], in experiment [2], in experiment [3], in [4], in [5] and in experiment [6] was above 100 µM in each case. Besides, the TGI in experiment [7] was above 100 µM.
For the compound `O=C1C[C@@H]2[C@@H](C=CC23CC3)N1O`, the TGI in [1], in [2], in experiment [4], in experiment [5], in [6] and in experiment [7] was above 100 µM each time.
As to `CCOC(=O)C1Nc2ccc([N+](=O)[O-])cc2[C@H]2OCC[C@@H]12` (some centres not stated), the TGI in experiment [1], in [2], in experiment [3], in experiment [4], in [6] and in experiment [7] was above 100 µM throughout.
With `CCCCCCN(CCCCCC)C1=CC(=O)C(=O)c2ccccc21`, the TGI in experiment [1] came out at 51.3 µM; in experiment [2], 33.6 µM; in experiment [3], 14 µM; in experiment [4] it was 29.2 µM; in [5], 60.2 µM; in experiment [6], 29.1 µM. Moreover, in experiment [7], the TGI came out at 31.6 µM.
With `CN(C(=N)c1ccccc1)c1ccccc1`, the TGI in [1], in experiment [3], in [4], in [5], in [6] and in [7] was above 100 µM each time.
`O=C(NCCN1CCOCC1)Nc1nc2ccc(Sc3nnc4ccc(-c5ccc(F)cc5)nn34)cc2s1`: the GI50 was above 100 µM in experiment [1]; above 100 µM in experiment [9]; above 100 µM in experiment [3]; 0.101 µM in [6]; above 100 µM in experiment [7]; above 21.2 µM in [8]. Moreover, the TGI in experiment [1] was above 100 µM; in experiment [2], above 100 µM; in experiment [9], above 100 µM; in [3] it was above 100 µM; in experiment [6], 1.95 µM; in experiment [7] it was above 100 µM. In addition, in experiment [8], the TGI is above 59.6 µM.
As to `Nc1ncnc2c1ncn2C1OC(CO)CC1O` (configuration not stated), the TGI is 82.2 µM in experiment [10]; above 100 µM in experiment [1]; 55.2 µM in experiment [9]; above 100 µM in experiment [3]; above 100 µM in experiment [4]; above 100 µM in [6]. In [7], this compound displayed a TGI above 100 µM.
In the case of `CC12CCC(=O)N1c1cc([N+](=O)[O-])ccc1N2` (configuration not stated), the TGI in experiment [1], in experiment [3], in experiment [4], in experiment [5], in experiment [6] and in experiment [7] was above 100 µM in each case.
Consider `[O-]c1ccccc1[C-]=Nc1ccccc1O.[O-]c1ccccc1[C-]=Nc1ccccc1O.[O]=[U]=[O]`, for which the GI50 is 2.95 µM in experiment [1]; 14.5 µM in experiment [2]; 4.13 µM in experiment [3]; 12.1 µM in experiment [4]; 1.59 µM in experiment [5]; 16.4 µM in [6]. Besides, the GI50 in experiment [7] is 43 µM. The TGI in experiment [1] worked out at 65 µM; in [2], 41.2 µM; in experiment [3], 29.5 µM; in experiment [4], 46.8 µM; in [5] it was 49.5 µM; in [6], 43.5 µM. The compound also yielded a TGI in experiment [7] of 71 µM.
For `COC(=O)c1ccc(CS(=O)(=O)c2ccccc2)cc1`, the TGI in experiment [1], in [2], in experiment [3], in [4], in experiment [5] and in experiment [6] was above 100 µM each time. The TGI in experiment [7] is above 100 µM.
Consider `Clc1cc2nc[nH]c2cc1Cl`, for which the TGI in [1], in [2], in [3], in experiment [4], in [5] and in experiment [6] was above 100 µM in each case. In addition, in [7], the TGI was above 100 µM.
As to `CCOC(=O)NC(=O)c1cn(CC(=O)NCC(=O)NCC(=O)N2CCN(CCn3c(C)nc(C(N)=O)c3N)CC2)c(=O)[nH]c1=O`, the TGI in [1], in experiment [2], in experiment [6] and in experiment [7] was above 100 µM throughout.
As for `C[C@]12CC/C(=N\O)C[C@@H]1CC[C@@H]1[C@@H]2CC[C@]2(C)/C(=N/O)CC[C@@H]12`, the GI50 is 64.4 µM in experiment [1]; 34.2 µM in [2]; 44.2 µM in [9]; 17.4 µM in [3]; 56.8 µM in experiment [4]; 15.9 µM in [5]. Besides, the GI50 in experiment [6] was 38.2 µM; in experiment [7], 51.4 µM; in experiment [8], above 100 µM. Further, the TGI was above 100 µM in experiment [1]; above 100 µM in experiment [2]; above 100 µM in experiment [9]; 59.1 µM in experiment [3]; above 100 µM in [4]; 52 µM in experiment [5]. For the same compound, the TGI in experiment [6], in [7] and in experiment [8] was above 100 µM throughout.
In the case of `O=c1/c(=C/c2ccccc2O)sc2nc3ccccc3n12`, the TGI was 43.7 µM in experiment [1]; above 100 µM in experiment [2]; 98.7 µM in experiment [3]; above 100 µM in [4]; 64.9 µM in experiment [5]; above 100 µM in experiment [6].
As to `Clc1cc(Cl)cc(C2SCc3nc4ccccc4n32)c1` (configuration not stated), the TGI in [1] is 57.2 µM; in experiment [2], 29.3 µM; in experiment [3] it was 38.3 µM; in experiment [5] it was 98.4 µM; in experiment [6] it was 29.3 µM; in [7], 63.8 µM.
Consider `OCC(O)C(O)C(O)c1nn[nH]n1` (configuration not stated), for which the TGI in [1], in [2], in experiment [3], in experiment [4], in experiment [5] and in [6] was above 100 µM in each case. This compound also had a TGI in experiment [7] above 100 µM.
In the case of `CC(C)(C)c1cc(O)c2c(c1O)C(=O)CCC2`, the TGI is 53.8 µM in [1]; above 100 µM in experiment [2]; 76.5 µM in [3]; above 100 µM in [4]; 54.1 µM in [5]; 99.2 µM in [6]. The TGI in experiment [7] is above 100 µM.
Turning to `CO[C@H](C(=O)O[C@H]1C(=O)N2CCC3CCC1C32C)c1ccccc1` (some centres not stated), the TGI in experiment [1], in experiment [2], in experiment [3], in [4], in [5] and in experiment [6] was above 100 µM each time. Besides, in experiment [7], the TGI was above 100 µM.
Turning to `Cc1cc(Cl)ccc1NC(=O)C1C(=O)C(=O)N(c2ccc(Cl)cc2C)C1=O` (configuration not stated), the TGI in experiment [1], in experiment [3], in experiment [4], in experiment [5], in [6] and in experiment [7] was above 100 µM throughout.
With `C/C(=N\NC(=O)C[n+]1ccccc1)c1sc(-c2nc(C)c(/C(C)=N/NC(=O)C[n+]3ccccc3)s2)nc1C`, the TGI in experiment [1], in experiment [2], in experiment [3], in [5], in experiment [6] and in [7] was above 100 µM in each case.
Consider `CC[C@@]1(O)C(=O)OCc2c1cc1n(c2=O)Cc2cc3c([N+](=O)[O-])c(O)ccc3nc2-1`, for which the GI50 was 0.0227 µM in [1]; 0.053 µM in [2]; 1.6 µM in experiment [3]; 2.22 µM in experiment [4]; 0.848 µM in experiment [5]; 0.155 µM in experiment [6]. For the same compound, the GI50 in [7] is 0.614 µM. For the same compound, the TGI in experiment [1] stood at 0.188 µM; in [2], 1.14 µM; in [3], 8.26 µM; in experiment [4], 8.73 µM; in [5], 9.39 µM; in [6] it was 2.2 µM. In experiment [7], this compound yielded a TGI of 25 µM.
For the compound `O=C1C2c3[nH]c4ccccc4c3C3CCC(c4ccccc4)CC3C2C(=O)N1c1ccccc1` (configuration not stated), the TGI in experiment [1], in [2], in [3], in experiment [4], in experiment [5] and in experiment [6] was above 100 µM in each case. In [7], this compound showed a TGI above 100 µM.
`CC1OC(OC23C(=O)CC(C)(O)CC2(O)C=CC2=C3C(=O)c3ccc(C4CC(OC5CCC(OC6CC(O)C(O)C(C)O6)C(C)O5)C(O)C(C)O4)c(O)c3C2=O)CCC1O` (configuration not stated): the TGI in [1] was above 100 µM; in [2], 38 µM and 34.3 µM; in [3] it was 29.8 µM and 9.07 µM; in [4], 33.6 µM and 30 µM; in [5], above 100 µM; in experiment [6], 30.4 µM and 9.87 µM. The TGI in experiment [7] was 86.2 µM and 46 µM. Further, the GI50 in [3] was 15.9 µM and 2.86 µM; in [6], 16.5 µM and 3.06 µM.
In the case of `Cc1ccc2oc(=O)cc(CC(=O)O)c2c1`, the TGI in [1], in experiment [2], in [3], in experiment [4], in experiment [5] and in experiment [6] was above 100 µM in each case. In [7], this compound gave a TGI above 100 µM.
